Test results: PMC10545790
“And” between values parts separate entries of the source, which are not always exact repeats. Identical values can stand only once. “Also recorded” adds a separate entry of the source. Counter-ions that a name gives are not always drawn.

Legend:
[1] = Thermal and chemical stability; assay type: physicochemical
Description: We also examined the thermal and chemical stability of the synthesized 2-oxabicyclo[2.2.2]octanes. As representative examples, we selected three molecules: isomeric acids 47, 54, and amine 52. All 2-oxabicyclo[2.2.2]octanes were crystalline solids that were stable in air. We stored them in stock at room temperature in closed vials and observed no changes according to ^1H NMR after one year. […] Treatment of the selected 2-oxabicyclo[2.2.2]octanes with aq. 1 M HCl, or aq.

[2] = system: human hepatocellular carcinoma cells HepG2; test: High Content Imaging of HepG2 cells: nuclei count, necrosis (PI), apoptosis (caspase 3/7); assay type: cell-based; parameters: Nuclei Area wv1 / Mean nuclei area: unit not given here; conditions: for Mean nuclei area / Mean nuclei intensity / % of early apoptotic cells (PI negative, caspase positive) / % of necrotic and late apoptotic cells (PI positive) / All Targets.PI negative.casp positive (%) / All Targets.PI positive (%) / Nuclei Area wv1 / Nuclei Intensity wv1 / Nuclei Count wv1 / % of necrotic and late apoptotic cells (PI positive); cell toxicity level / inhibition of cell proliferation (in words) / cytotoxic effects (in words) / effect on cell proliferation (in words): HepG2, 48 h; for Mean nuclei intensity: Hoechst 33342; for % of early apoptotic cells (PI negative, caspase positive) / % of necrotic and late apoptotic cells (PI positive) / % of necrotic and late apoptotic cells (PI positive); cell toxicity level: mean of 3 wells; for All Targets.PI negative.casp positive (%) / All Targets.PI positive (%) / Nuclei Area wv1 / Nuclei Intensity wv1: single well; for Nuclei Count wv1: single well (concentration from plate map the 5th table); for inhibition of cell proliferation (in words): 50 μM, nuclei count; for effect on HepG2 cell death / apoptosis compared with Vorinostat (in words): HepG2, 48 h, 1, 5 and 50 μM; for cytotoxic effects (in words) / effect on cell proliferation (in words): 1 and 5 μM
Description: proliferation and cell death mechanisms, using High Content Imaging assay. The following parameters were assessed: nuclei count to measure inhibiting of the proliferation; cell membrane permeability to assess general cytotoxicity and necrosis; caspase activation to test apoptosis. […]
Human hepatocellular carcinoma HepG2 cell line was used to test biological action of Vorinostat and its analogues. Cell line was obtained from Leibniz Institute DSMZ - German Collection of Microorganisms and Cell Cultures. Cells were cultured in DMEM medium (Hyclone, Cat# SH30003.04) supplemented with 10% fetal bovine serum (Sigma-Aldrich, Cat# F7524), 100 units/mL penicillin and 100 μg/mL streptomycin (Sigma-Aldrich, Cat# P4333).
Before plating, the cells were first washed with PBS and then trypsinized with 0.01% trypsin solution (Sigma-Aldrich, Cat# T4174) in DPBS. The appropriate volume of culture medium was placed in a flask to stop further trypsinization, then the cells were centrifugated at 200 x g for 4 min, resuspended in fresh complete medium and counted using a counting chamber after being stained with Trypan Blue. […]
μL total volume per well and incubated at 37 °C/5%CO2/95%RH overnight. Vorinostat and test compounds were dissolved in 100% DMSO at a concentration of 10 mM and stored at -20 °C as single-use aliquots. Next day 20 μL of medium with compounds was added to the cells to the final DMSO concentration […]. Treatment for 48 hours was performed under growth conditions.
Compounds were assessed at the final concentrations 1, 5 and 50 μM (each in triplicates - 3 wells, 9 fields of view per well). Staining for nuclei, apoptotic cells with activated caspase 3/7 and dead […]
cells with permeabilized membrane was performed for 30 min under growth conditions in staining […]
3/7 Detection Reagent (Invitrogen, Cat# C10423) and 1 μM Propidium Iodide (Invitrogen, Cat# P3566) in medium complete. The cells were imaged with InCell Analyzer 6500, 20x obj. Image […]
Data were analyzed in GraphPad Prism 9.
Supplementary Fig. 16. Workflow of multiplexed cells staining.
Multiplexed staining allows to test cell toxicity and distinguish between necrosis and apoptosis within one single experiment (Supplementary Fig. 16).
CellEvent Caspase-3/7 Green Detection Reagent labels cells with activated caspases. Propidium Iodide (PI) labels dead cells with permeabilized membrane. Hoechst-positive cells were counted to assess the % of cell toxicity. PI-positive cells are dead – this is a fraction of necrotic and late apoptotic cells, used for assessing of cytotoxicity/necrosis. Early apoptotic cells are caspase-positive, PI-negative because their membrane isn’t compromised yet. Percentages of cells of certain […]
background and comparing with overall number of cells.

in vitro = conditions: both, human
[3] = microsomes, pH 7.4, % Remaining, Mean of 2

SMILES | Mean nuclei area ([2]; 1 uM) | Mean nuclei intensity ([2]; 1 uM) [RFU] | % of early apoptotic cells (PI negative, caspase positive) ([2]; 1 uM) [%] | % of necrotic and late apoptotic cells (PI positive) ([2]; 1 uM) [%] | All Targets.PI negative.casp positive (%) ([2]; 1 uM) | All Targets.PI positive (%) ([2]; 1 uM) | Nuclei Area wv1 ([2]; 1 uM) | Nuclei Count wv1 ([2]; 1 uM) | Mean nuclei area ([2]; 5 uM) | Mean nuclei intensity ([2]; 5 uM) [RFU] | % of early apoptotic cells (PI negative, caspase positive) ([2]; 5 uM) [%] | % of necrotic and late apoptotic cells (PI positive) ([2]; 5 uM) [%] | All Targets.PI negative.casp positive (%) ([2]; 5 uM) | All Targets.PI positive (%) ([2]; 5 uM) | Nuclei Area wv1 ([2]; 5 uM) | Nuclei Intensity wv1 ([2]; 5 uM) | Nuclei Count wv1 ([2]; 5 uM) | Mean nuclei area ([2]; 50 uM) | Mean nuclei intensity ([2]; 50 uM) [RFU] | % of early apoptotic cells (PI negative, caspase positive) ([2]; 50 uM) [%] | also measured
CC12CCC(CN)(CC1)OC2 [Compound 52] |  |  |  |  |  |  |  |  |  |  |  |  |  |  |  |  |  |  |  |  | chemical stability in acid ([1]; aq. 1 M HCl, room temperature, 1 h): no decomposition; chemical stability in base ([1]; aq. 1 M NaOH, room temperature, 1 h): no decomposition; thermal stability ([1]; heating at 100 °C for five minutes): remained stable; stability on storage ([1]; in air, room temperature, closed vials, one year, 1H NMR): no changes
O=C(CCCCCCC(=O)NC12CCC(CC1)OC2)NO [Compound 88] | 117.1 | 2764.0 | 0.344 | 0.9 | 0.2791% and 0.3975% and 0.3542% | 1.031% and 0.9564% and 0.6961% | 117.054 and 118.289 and 116.039 | 8241 and 8051 and 8188 | 118.3 | 3381.0 | 0.463 | 0.8 | 0.548% and 0.4031% and 0.4377% | 0.8821% and 0.8306% and 0.721% | 119.866 and 117.043 and 117.864 | 3478.61 and 2783.26 and 3882.1 | 7482 and 8187 and 7767 | 129.6 | 3968.0 | 12.0 | Nuclei Intensity wv1 ([2]; 1 uM): 2311.93 and 2195.12 and 3784.44; % of necrotic and late apoptotic cells (PI positive); cell toxicity level ([2]; 50 uM): 18% and 18.5%; inhibition of cell proliferation (in words) [2]: inhibited cell proliferation at 50 μM concentration to the same level as Vorinostat; All Targets.PI negative.casp positive (%) ([2]; 50 uM): 11.5569% and 11.4167% and 12.9144%; All Targets.PI positive (%) ([2]; 50 uM): 19.3713% and 17.5096% and 18.5033%; Nuclei Area wv1 ([2]; 50 uM): 130.383 and 125.337 and 133.198; Nuclei Intensity wv1 ([2]; 50 uM): 4177.18 and 3221.5 and 4506.24; Nuclei Count wv1 ([2]; 50 uM): 3340 and 3381 and 3167; effect on HepG2 cell death / apoptosis compared with Vorinostat (in words) [2]: active; cytotoxic effects (in words) [2]: did not demonstrate any significant cytotoxic effects; effect on cell proliferation (in words) [2]: did not have any significant effects
O=C(CCCCCCC(=O)Nc1ccccc1)NO [Vorinostat, reference compound] | 133.3 | 3539.0 | 1.4 | 2.0 | 1.09% and 1.685% and 1.464% | 1.46% and 2.372% and 2.236% | 132.596 and 129.806 and 137.55 | 5137 and 4806 and 4919 | 133.4 | 4444.0 | 7.2 | 10.4 | 8.109% and 5.087% and 8.342% | 11.8095% and 7.619% and 11.7647% | 135.125 and 131.698 and 133.281 | 4725.81 and 3784.72 and 4822.36 | 3675 and 4187 and 3740 | 122.1 | 1952.0 | 12.2 | Nuclei Intensity wv1 ([2]; 1 uM): 3323.23 and 3018.81 and 4275.36; % of necrotic and late apoptotic cells (PI positive); cell toxicity level ([2]; 50 uM): 77% and 77.5%; All Targets.PI negative.casp positive (%) ([2]; 50 uM): 12.2839% and 13.7268% and 10.5715%; All Targets.PI positive (%) ([2]; 50 uM): 77.0504% and 75.6692% and 79.9029%; Nuclei Area wv1 ([2]; 50 uM): 120.16 and 121.222 and 124.941; Nuclei Intensity wv1 ([2]; 50 uM): 1713 and 2196.3 and 1947.17; Nuclei Count wv1 ([2]; 50 uM): 2719 and 2914 and 2677
O=C(CCCCCCC(=O)NC12CCC(CC1)CC2)NO [Compound 89] | 117.0 | 3374.0 | 0.444 | 0.6 | 0.4175% and 0.3796% and 0.5358% | 0.5526% and 0.5457% and 0.7144% | 115.697 and 116.603 and 118.647 | 8143 and 8429 and 8399 | 120.9 | 4138.0 | 0.563 | 0.9 | 0.4763% and 0.5673% and 0.6459% | 0.9922% and 0.9996% and 0.6321% | 120.224 and 120.771 and 121.802 | 4041.68 and 3853.68 and 4517.41 | 7559 and 7403 and 7277 | 115.2 | 2088.0 | 9.5 | % of necrotic and late apoptotic cells (PI positive); cell toxicity level ([2]; 50 uM): 67% and 67.1%; inhibition of cell proliferation (in words) [2]: inhibited cell proliferation at 50 μM concentration to the same level as Vorinostat; All Targets.PI negative.casp positive (%) ([2]; 50 uM): 10.5117% and 9.102% and 8.933%; All Targets.PI positive (%) ([2]; 50 uM): 65.2916% and 67.7168% and 68.1969%; Nuclei Area wv1 ([2]; 50 uM): 113.454 and 115.571 and 116.43; Nuclei Intensity wv1 ([2]; 50 uM): 1984.47 and 1672.21 and 2607.1; Nuclei Count wv1 ([2]; 50 uM): 2521 and 2571 and 2418; effect on HepG2 cell death / apoptosis compared with Vorinostat (in words) [2]: activity profile was the closest to Vorinostat; also recorded: active; cytotoxic effects (in words) [2]: did not demonstrate any significant cytotoxic effects; effect on cell proliferation (in words) [2]: did not have any significant effects
CC(C)NCC(O)COc1cccc2ccccc12 (racemic) [Propranolol, (+,-) Propranolol hydrochloride] |  |  |  |  |  |  |  |  |  |  |  |  |  |  |  |  |  |  |  |  | remaining at 40 min, 2 µM (in vitro; [3]): 66%; half-life at 2 µM (in vitro; microsomes, pH 7.4, t1/2: half-time of a metabolic decomposition): 1.02 h; k el at 2 µM (in vitro; pH 7.4, kel (elimination constant)): 0.000183 s⁻¹
Cc1ccc(NC(=O)c2ccc(CN3CCN(C)CC3)cc2)cc1Nc1nccc(-c2cccnc2)n1 [Imatinib] |  |  |  |  |  |  |  |  |  |  |  |  |  |  |  |  |  |  |  |  | remaining at 40 min, 2 µM (in vitro; microsomes, pH 7.4, % Remaining without cofactor, Mean of 2): 88%; remaining at 7 min, 2 µM (in vitro; [3]): 109%; remaining at 0.25 h, 2 µM (in vitro; [3]): 93%; remaining at 25 min, 2 µM (in vitro; [3]): 82%; remaining at 40 min, 2 µM (in vitro; [3]): 66%
